The nature of series [1]: Solubility of complexes in isohexane (Method 1 or Method 2). The series is classed as physicochemical. The settings on record: ambient temperature (20° C.-25° C.), mass includes residual solvent. Here is the method:
Solubility studies for all other complexes were performed using material as synthesized. […] Solvents used were sparged with nitrogen (30-60 minutes) and dried over 3 Å mole sieves. Unless stated otherwise all measurements were performed at ambient temperature (20° C.-25° C.).
General procedure: Solubility was determined using the following Method 1 or Method 2. For calculations, a value of 0.672 g/mL was used for the density of isohexane.
Method 1: A tared vial was loaded with a small amount of the complex (actual mass recorded, including any residual solvent as noted above, typically 5-30 mg). Then a small stir bar (8 mm) was added. Solvent was then added and the mixture was stirred rapidly (1000 rpm). […] This process was repeated until either a clear solution was obtained (no visible solids or murkiness) or the vial was full. As the mixture approached homogeneity (i.e., few remaining solids observed) the volume of the solvent additions was kept small (<1 mL) to minimize excess beyond the solvent required to achieve homogeneity. The stir bar was then removed and the mass of the mixture was measured. If a clear solution had formed then the solubility of the complex was calculated as a single value, based on the mass of complex and the amount of solvent added to achieve a homogeneous solution. If the mixture remained heterogeneous (visible solids or murky), then the value reported is given as being “less than” the calculated value.
Method 2: A measured amount of complex (actual mass recorded, including any residual solvent as noted above) was added to a tared vial, followed by a stir bar. Dry isohexanes were added in small portions and the resulting mixture was stirred after each portion of isohexanes. If a clear solution had formed then the solubility was reported as a range, the lower bound of solubility calculated using the total solvent added to achieve a homogenous solution and the upper bound of solubility calculated using the total solvent measured prior to achieving a homogenous solution. If the mixture remained heterogeneous (visible solids or murky), the upper bound of solubility was calculated using the total solvent added. Formula used to calculate solubility are listed below. Solvent present in the complex is included in the mass and formula weight of the complexes.

Series [2] can be described thus: Rapid GPC of polymers (Mn, Mw, Mz, PDI). The series is classed as physicochemical. On the set-up: Mn / Mw / Mz: unit not given here. As for the experimental part:
For analytical testing, polymer sample solutions were prepared by dissolving polymer in 1,2,4-trichlorobenzene (TCB, 99+% purity from Sigma-Aldrich) containing 2,6-di-tert-butyl-4-methylphenol (BHT, 99% from Aldrich) at 165° C. in a shaker oven for approximately 3 hours. The typical concentration of polymer in solution was between 0.1 to 0.9 mg/mL with a BHT concentration of 1.25 mg BHT/mL of TCB. Samples were cooled to 135° C. for testing.
High temperature size exclusion chromatography was performed using an automated “Rapid GPC” system as described in U.S. Pat. Nos. 6,491,816; 6,491,823; 6,475,391; 6,461,515; 6,436,292; 6,406,632; 6,175,409; 6,454,947; 6,260,407; and 6,294,388; each of which is incorporated herein by reference. Molecular weights (weight average molecular weight (Mw), number average molecular weight (Mn) and z average molecular weight (Mz)) and molecular weight distribution (MWD=Mw/Mn), which is also sometimes referred to as the polydispersity (PDI) of the polymer, were measured by Gel Permeation Chromatography using a Symyx Technology GPC equipped with evaporative light scattering detector (ELSD) and calibrated using polystyrene standards (Polymer Laboratories: Polystyrene Calibration Kit S-M-10: Mp (peak Mw) between 5,000 and 3,390,000). Alternatively, samples were measured by Gel Permeation Chromatography using a Symyx Technology GPC equipped with dual wavelength infrared detector and calibrated using polystyrene standards (Polymer Laboratories: Polystyrene Calibration Kit S-M-10: Mp (peak Mw) between 580 and 3,039,000). […] No column spreading corrections were employed. Numerical analyses were performed using Epoch® software available from Symyx Technologies or Automation Studio software available from Freeslate. The molecular weights obtained are relative to linear polystyrene standards. Molecular weight data is reported in Table 2 under the headings Mn, Mw, Mz and PDI as defined above.

The mark [3] stands for this setting: polypropylene made with activator A at 70° C.
[4] abbreviates: polypropylene made with activator A at 100° C.
[5] abbreviates: polypropylene made with activator B at 70° C.
[6] abbreviates: polypropylene made with activator B at 100° C.
[7] abbreviates: polymer made with activator A, T 70 ° C.
Setting [8] is: polymer made with activator A, T 100 ° C.
The mark [9] stands for this setting: polymer made with activator B, T 70 ° C.
[10] abbreviates: polymer made with activator B, T 100 ° C.

Two compounds from patent US20250277066A1, “Substituted Pyridine-2,6-Bis(Phenylenephenolate) Complexes with Enhanced Solubility that are Useful as Catalyst Components for Olefin Polymerization” (ExxonMobil Chemical Patents Inc., priority 2022, published 2025) can be followed below.

Several values for one entry are separate records, joined by “and”; a condition that tells them apart may be missing. Equal entries are not always repeated.

Turning to `CC(C)(C)c1cc2c(c(C34CC5CC(CC(C5)C3)C4)c1)[O][Zr-]1([CH3])([CH3])[O]c3c(cc(C(C)(C)C)cc3C34CC5CC(CC(C5)C3)C4)-c3ccccc3-c3cccc([n+]31)-c1ccccc1-2` [Complex 2], the “Solubility (s) in Isohexane (wt %)” value in series [1] is recorded as 0.081 wt %. The Mn is 51,771 and 73,251 and 79,137 in series [2] (setting [3]); 142,243 and 146,842 and 153,727 in series [2] (setting [5]); 63,491 and 54,833 and 47,288 in series [2] (setting [6]). For the same compound, the Mw was 409,655 and 422,884 and 427,915 in series [2] (setting [3]); 157,755 and 118,735 and 149,968 in series [2] (setting [4]); 528,329 and 583,343 and 515,347 in series [2] (setting [5]); 180,083 and 161,679 and 169,722 in series [2] (setting [6]). In addition, the Mz was 1,643,708 and 1,794,768 and 1,704,507 in series [2] (setting [3]); 608,816 and 547,511 and 649,731 in series [2] (setting [4]); 1,786,121 and 2,112,818 and 1,774,716 in series [2] (setting [5]); 621,548 and 531,840 and 733,298 in series [2] (setting [6]). For the same compound, the PDI was 7.91 and 5.77 and 5.41 in series [2] (polypropylene made with activator A at 70° C., Mw/Mn); 3.82 and 5.79 and 4.78 in series [2] (polypropylene made with activator A at 100° C., Mw/Mn); 3.71 and 3.97 and 3.35 in series [2] (polypropylene made with activator B at 70° C., Mw/Mn); 2.84 and 2.95 and 3.59 in series [2] (polypropylene made with activator B at 100° C., Mw/Mn).

In the case of `Cc1cc2[n+]3c(c1)-c1ccccc1-c1cc(C(C)(C)C)cc(C45CC6CC(CC(C6)C4)C5)c1[O][Zr-]3([CH3])([CH3])[O]c1c(cc(C(C)(C)C)cc1C13CC4CC(CC(C4)C1)C3)-c1ccccc1-2` [Complex 3], in series [1], the “Solubility (s) in Isohexane” value is recorded as less than 3.2 mM and the “Solubility (s) in Isohexane (wt %)” value was less than 0.5 wt %. For the same compound, in series [2] (setting [7]), the Mn is 151,894 and 189,341; the Mw is 555,461 and 618,660; the Mz was 2,204,591 and 1,998,977; the PDI is 3.66 and 3.27. Further, in series [2] (setting [8]), the Mn was 97,418 and 70,184 and 116,079; the Mw was 211,821 and 182,436 and 245,630; the Mz was 590,904 and 640,309 and 691,819; the PDI is 2.17 and 2.60 and 2.12. In series [2] (setting [9]), the Mn was 251,087 and 247,428 and 294,324; the Mw is 611,739 and 605,320 and 723,438; the Mz is 1,641,465 and 1,654,930 and 2,228,894; the PDI is 2.44 and 2.45 and 2.46. In series [2] (setting [10]), the Mn was 136,672 and 115,932 and 136,724; the Mw was 263,279 and 217,696 and 285,817; the Mz is 693,703 and 504,146 and 859,182; the PDI is 1.93 and 1.88 and 2.09.
